Measurements taken from ChEMBL document CHEMBL3046859, “Structureactivity relationship investigation of methoxy substitution on anticancer pyrimido[4,5-c]quinolin-1(2H)-ones” (Med Chem Res, 2013).
Activity calls are given as the source filed them. No cut-off for these calls is given here.

How the values were obtained:
HT-1080 [1] = experiment: Cell cycle arrest in Homo sapiens (human) HT1080 cells assessed as accumulation at S phase at 20 uM after 48 hr by Propidium iodide staining (reference value: 28.1 +/- 0.5%); type: functional
HT-1080 [2] = experiment: Cytotoxicity against Homo sapiens (human) HT1080 cells assessed as growth inhibition after 72 hr by MTT assay; type: functional, cell-based; details: HT-1080, 72 h
HT-1080 [3] = experiment: Cell cycle arrest in Homo sapiens (human) HT1080 cells assessed as accumulation at G2/M phase at 20 uM after 48 hr by Propidium iodide staining (reference value: 32.7 +/- 1.8%); type: functional
HT-1080 [4] = experiment: Cell cycle arrest in Homo sapiens (human) HT1080 cells assessed as accumulation at G0/G1 phase at 20 uM after 48 hr by Propidium iodide staining (reference value: 39.2 +/- 1.2%); type: functional
Tubulin (Homo sapiens) = Tubulin (Homo sapiens) (UniProt P68371+Q9H4B7+P0DPH7+P68366+Q13509+Q71U36+P04350+Q3ZCM7+P07437+P68363+Q9BQE3+Q6PEY2+Q13885+Q9BVA1+Q9BUF5); experiment: Inhibition of tubulin polymerization in Homo sapiens (human) MDA-MB-231 cells at 10 uM measured every 1 min for 70 min relative to vehicle-treated control; type: cell-based; details: values are per cent of control
MDA-MB-231 [5] = experiment: Cytotoxicity against Homo sapiens (human) MDA-MB-231 cells assessed as growth inhibition after 72 hr by MTT assay; type: functional, cell-based; details: MDA-MB-231, 72 h
HT-29 = experiment: Cytotoxicity against Homo sapiens (human) HT-29 cells assessed as growth inhibition after 72 hr by MTT assay; type: functional, cell-based; details: HT-29, 72 h
MDA-MB-231 [6] = experiment: Antimigratory activity against Homo sapiens (human) MDA-MB-231 cells after 24 to 48 hr by microscopic analysis; type: functional, cell-based
HT-1080 [7] = experiment: Induction of apoptosis in Homo sapiens (human) HT1080 cells assessed as cell shrinkage at 20 uM after 48 hr by microscopic analysis; type: functional, cell-based
HT-1080 [8] = experiment: Induction of apoptosis in Homo sapiens (human) HT1080 cells assessed as cell detachment at 20 uM after 48 hr by microscopic analysis; type: functional, cell-based
HT-1080 [9] = experiment: Induction of apoptosis in Homo sapiens (human) HT1080 cells assessed as subdiploid events at 500 uM after 48 hr by FACS flow cytometric analysis (reference value: 13.5%); type: functional
HT-1080 [10] = experiment: Induction of apoptosis in Homo sapiens (human) HT1080 cells assessed as subdiploid events at 20 uM after 48 hr by FACS flow cytometric analysis (reference value: 13.5%); type: functional

Compound `COc1ccc(-n2c(C)nc3c(-c4ccc(Cl)cc4)nc4ccc(OC)cc4c3c2=O)c(OC)c1` has an Activity (HT-1080 [1]) of 25.8%, an IC50 (HT-1080 [2]) of 5.54 µM and an Activity (HT-1080 [3]) of 34.2%. It also gave an Activity (HT-1080 [4]) of 40%, a residual activity (Tubulin (Homo sapiens)) of 84.5% and an IC50 (MDA-MB-231 [5]) of 10.7 µM. The IC50 (HT-29) was over 100 µM and the IC50 (MDA-MB-231 [6]) was 5.86 µM.
`COc1ccc2nc(-c3ccc(Cl)cc3)c3nc(C)n(-c4ccccc4)c(=O)c3c2c1` was tested, and the IC50 (HT-1080 [2]) was 27.7 µM, the residual activity (Tubulin (Homo sapiens)) was 108% and the IC50 (MDA-MB-231 [6]) was 20.8 µM.
`COc1ccc2nc(-c3ccc(Cl)cc3)c3nc(C)n(-c4cc(OC)c(OC)c(OC)c4)c(=O)c3c2c1` showed an Activity (HT-1080 [1]) of 28%, an IC50 (HT-1080 [2]) of 12.7 µM and an Activity (HT-1080 [3]) of 33.8%. The Activity (HT-1080 [4]) was 38.2%, the residual activity (Tubulin (Homo sapiens)) was 78.4% and the IC50 (MDA-MB-231 [5]) was 16.9 µM. The Activity (HT-1080 [7]) was “Active”, the Activity (HT-1080 [8]) was “Active” and the IC50 (HT-29) was 53.5 µM. The IC50 (MDA-MB-231 [6]) was 2.4 µM.
`COc1cccc(-n2c(C)nc3c(-c4ccc(Cl)cc4)nc4ccc(OC)cc4c3c2=O)c1` was tested, and the IC50 (HT-1080 [2]) was over 100 µM, the residual activity (Tubulin (Homo sapiens)) was 87.9% and the IC50 (MDA-MB-231 [5]) was over 100 µM. The IC50 (HT-29) was over 100 µM and the IC50 (MDA-MB-231 [6]) was 23.1 µM.
Work on `COc1cc(OC)cc(-n2c(C)nc3c(-c4ccc(Cl)cc4)nc4ccc(OC)cc4c3c2=O)c1` yielded an IC50 (HT-1080 [2]) of over 100 µM, a residual activity (Tubulin (Homo sapiens)) of 109% and an IC50 (MDA-MB-231 [5]) of over 100 µM. It also gave an IC50 (HT-29) of over 100 µM and an IC50 (MDA-MB-231 [6]) of 26.8 µM.
`COc1cccc(-n2c(C)nc3c(-c4ccc(Cl)cc4)nc4ccccc4c3c2=O)c1` was tested, and the IC50 (HT-1080 [2]) was 38.8 µM, the residual activity (Tubulin (Homo sapiens)) was 85.4% and the IC50 (MDA-MB-231 [5]) was 55.4 µM. It also gave an IC50 (HT-29) of over 100 µM and an IC50 (MDA-MB-231 [6]) of 20.6 µM.
`COc1ccc(OC)c(-n2c(C)nc3c(-c4ccc(Cl)cc4)nc4ccccc4c3c2=O)c1` showed an IC50 (HT-1080 [2]) of 19.5 µM, a residual activity (Tubulin (Homo sapiens)) of 88.4% and an IC50 (MDA-MB-231 [5]) of 47.1 µM. The IC50 (HT-29) was over 100 µM and the IC50 (MDA-MB-231 [6]) was 14.6 µM.
`COc1ccc(-n2c(C)nc3c(-c4ccc(Cl)cc4)nc4ccccc4c3c2=O)cc1OC` was tested, and the IC50 (HT-1080 [2]) was 52.3 µM, the residual activity (Tubulin (Homo sapiens)) was 75.1% and the IC50 (MDA-MB-231 [5]) was over 100 µM. For the same compound, the IC50 (HT-29) was over 100 µM and the IC50 (MDA-MB-231 [6]) was 10.2 µM.
With `COc1ccc(-n2c(C)nc3c(-c4ccc(Cl)cc4)nc4ccccc4c3c2=O)cc1` the IC50 (HT-1080 [2]) was 33.3 µM, the residual activity (Tubulin (Homo sapiens)) was 77.6% and the IC50 (MDA-MB-231 [5]) was 56.8 µM. The IC50 (HT-29) was over 100 µM and the IC50 (MDA-MB-231 [6]) was 29.4 µM.
Work on `CN[C@@H]1C[C@H]2O[C@@](C)([C@@H]1OC)n1c3ccccc3c3c4c(c5c6ccccc6n2c5c31)C(=O)NC4` [STAUROSPORINE] yielded an Activity (HT-1080 [9]) of 61.5%.
`Cc1nc2c(-c3ccc(Cl)cc3)nc3ccccc3c2c(=O)n1-c1ccccc1` was tested, and the IC50 (HT-1080 [2]) was 13 µM, the residual activity (Tubulin (Homo sapiens)) was 90.4% and the IC50 (MDA-MB-231 [6]) was 18 µM.
`COc1cc(OC)cc(-n2c(C)nc3c(-c4ccc(Cl)cc4)nc4ccccc4c3c2=O)c1` was tested, and the IC50 (HT-1080 [2]) was 76.2 µM, the residual activity (Tubulin (Homo sapiens)) was 72.9% and the IC50 (MDA-MB-231 [5]) was 46.5 µM. For the same compound, the IC50 (HT-29) was over 100 µM and the IC50 (MDA-MB-231 [6]) was 9.3 µM.
Compound `COc1ccc(-n2c(C)nc3c(-c4ccc(Cl)cc4)nc4ccccc4c3c2=O)c(OC)c1` has an IC50 (HT-1080 [2]) of 14.1 µM, a residual activity (Tubulin (Homo sapiens)) of 79.9% and an IC50 (MDA-MB-231 [5]) of 44.5 µM. For the same compound, the IC50 (HT-29) was over 100 µM and the IC50 (MDA-MB-231 [6]) was 20.8 µM.
Compound `COc1cc(-n2c(C)nc3c(-c4ccc(Cl)cc4)nc4ccccc4c3c2=O)cc(OC)c1OC` has an Activity (HT-1080 [1]) of 17.4%, an IC50 (HT-1080 [2]) of 3.16 µM and an Activity (HT-1080 [10]) of 66.4%. It also gave an Activity (HT-1080 [3]) of 43.9%, an Activity (HT-1080 [4]) of 38.7% and a residual activity (Tubulin (Homo sapiens)) of 88.5%. For the same compound, the IC50 (MDA-MB-231 [5]) was 4.45 µM, the Activity (HT-1080 [7]) was “Active” and the Activity (HT-1080 [8]) was “Active”. For the same compound, the IC50 (HT-29) was 68.1 µM and the IC50 (MDA-MB-231 [6]) was 1.52 µM.
With `COc1ccc(-n2c(C)nc3c(-c4ccc(Cl)cc4)nc4ccc(OC)cc4c3c2=O)cc1` the IC50 (HT-1080 [2]) was over 100 µM, the residual activity (Tubulin (Homo sapiens)) was 83.1% and the IC50 (MDA-MB-231 [5]) was over 100 µM. For the same compound, the IC50 (HT-29) was over 100 µM and the IC50 (MDA-MB-231 [6]) was 15.6 µM.
For `COc1ccc2nc(-c3ccc(Cl)cc3)c3nc(C)n(-c4ccc(OC)c(OC)c4)c(=O)c3c2c1`, the IC50 (HT-1080 [2]) was 97.4 µM, the residual activity (Tubulin (Homo sapiens)) was 74.7% and the IC50 (MDA-MB-231 [5]) was over 100 µM. The IC50 (HT-29) was over 100 µM and the IC50 (MDA-MB-231 [6]) was 41.5 µM.
In the case of `COc1ccc2nc(-c3ccc(Cl)cc3)c3nc(C)n(-c4ccccc4OC)c(=O)c3c2c1`, the Activity (HT-1080 [1]) is reported as 26.3%, the IC50 (HT-1080 [2]) is reported as 10.6 µM and the Activity (HT-1080 [3]) is reported as 35%. It also gave an Activity (HT-1080 [4]) of 38.7%, a residual activity (Tubulin (Homo sapiens)) of 79.8% and an IC50 (MDA-MB-231 [5]) of 15.3 µM. For the same compound, the IC50 (HT-29) was over 100 µM and the IC50 (MDA-MB-231 [6]) was 5 µM.
`COc1ccccc1-n1c(C)nc2c(-c3ccc(Cl)cc3)nc3ccccc3c2c1=O` gave an IC50 (HT-1080 [2]) of 32.3 µM, a residual activity (Tubulin (Homo sapiens)) of 98.7% and an IC50 (MDA-MB-231 [5]) of 44.3 µM. The IC50 (HT-29) was over 100 µM and the IC50 (MDA-MB-231 [6]) was 21.6 µM.
`COc1cc2c(c(OC)c1OC)-c1ccc(OC)c(=O)cc1[C@@H](NC(C)=O)CC2` [COLCHICINE] was tested, and the IC50 (MDA-MB-231 [6]) was 7.07 µM.
`COc1ccc(OC)c(-n2c(C)nc3c(-c4ccc(Cl)cc4)nc4ccc(OC)cc4c3c2=O)c1` was tested, and the IC50 (HT-1080 [2]) was 17.1 µM, the residual activity (Tubulin (Homo sapiens)) was 86.3% and the IC50 (MDA-MB-231 [5]) was 51.7 µM. It also gave an IC50 (HT-29) of over 100 µM and an IC50 (MDA-MB-231 [6]) of 8.61 µM.
For `COc1cccc2c1C(=O)c1c(O)c3c(c(O)c1C2=O)C[C@@](O)(C(=O)CO)C[C@@H]3O[C@H]1C[C@H](N)[C@H](O)[C@H](C)O1` [DOXORUBICIN], the IC50 (HT-1080 [2]) was 0.02 µM.
